This note sets out measurements from patent publication US20240109900A1, “AZABICYCLIC SHP2 INHIBITORS” (IRBM S.P.A., priority 2021, published 2024).

The IC50 is the concentration at which inhibition is half-maximal.

In assay [1] the test system is ERK phosphorylation in KYSE-520 cells. In words: Phospho-ERK cellular assay. As to conditions: Homo sapiens, KYSE-520, 2 h, KYSE-520 cells, 2 h at 37° C., phospho-ERK1/2 (Thr202/Tyr204) TR-FRET; read-out: PERK IC50. Type of assay: cell-based. The method in brief:
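TR-FRET read-out of ERK1/2 Thr202/Tyr204 phosphorylation was taken after overnight antibody incubation at room temperature. Before that, KYSE-520 cells were treated 2 h at 37 °C with compound dilutions and lysed 30 min. Percent inhibition relative to vehicle and cell-free wells was fitted four-parametrically to give IC50.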

Assay [2] has as its target SHP-2 enzyme (Met1-Leu525) (Homo sapiens (Human), UniProt Q06124). In words: SHP2 inhibition enzymatic assay. Type of assay: biochemical. The following applies: 0.5 nM SHP-2 activated by 500 nM IRS1 peptide, 75 μM DiFMUP substrate; read-out: SHP2wt-IC50. The method in brief:
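SHP-2 (Met1-Leu525), 0.5 nM, activated with 500 nM IRS1 bis-phosphopeptide, preincubated 30 min with compounds in HEPES pH 7.2 buffer with 5 mM DTT. 75 μM DiFMUP added for 30 min at room temperature, stopped with bpV; fluorescence read. IC50 from four-parameter logistic fit of % inhibition.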

SHP-2 enzyme (Met1-Leu525), sequence (Q06124 1-525): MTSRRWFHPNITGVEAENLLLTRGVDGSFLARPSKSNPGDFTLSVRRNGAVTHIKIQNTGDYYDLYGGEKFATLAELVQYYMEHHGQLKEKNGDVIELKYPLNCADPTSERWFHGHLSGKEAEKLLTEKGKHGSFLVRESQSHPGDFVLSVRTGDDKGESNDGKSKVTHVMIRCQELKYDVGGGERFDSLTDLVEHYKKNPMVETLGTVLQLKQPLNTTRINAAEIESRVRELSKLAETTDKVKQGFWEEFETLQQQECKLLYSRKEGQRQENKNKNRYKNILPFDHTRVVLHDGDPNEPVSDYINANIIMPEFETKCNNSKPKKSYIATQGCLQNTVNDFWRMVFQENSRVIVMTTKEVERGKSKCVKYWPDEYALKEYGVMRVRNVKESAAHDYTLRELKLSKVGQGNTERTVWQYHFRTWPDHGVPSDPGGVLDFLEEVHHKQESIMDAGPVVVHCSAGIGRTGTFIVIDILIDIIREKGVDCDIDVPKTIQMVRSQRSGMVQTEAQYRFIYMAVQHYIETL

For the compound `Cn1c(=O)n(C)c2cc(-c3n[nH]c4nc(N5CC[C@@H]6[C@H](C5)[C@@]6(CN)c5ccccc5F)cnc34)ccc21` [Example 232, 5-(6-((1S,6R,7R)-7-(aminomethyl)-7-(2-fluorophenyl)-3-azabicyclo[4.1.0]heptan-3-yl)-1H-pyrazolo[3,4-b]pyrazin-3-yl)-1,3-dimethyl-1,3-dihydro-2H-benzo[d]imidazol-2-one], the IC50 was < 1000 nM in assay [1] and < 500 nM in assay [2].

`NC[C@]1(c2ccccc2F)[C@@H]2CCN(c3cnc4c(-c5ccc6c(c5)NC(=O)C6)n[nH]c4n3)C[C@@H]21` [Example 233, 6-(6-((1S,6R,7R)-7-(aminomethyl)-7-(2-fluorophenyl)-3-azabicyclo[4.1.0]heptan-3-yl)-1H-pyrazolo[3,4-b]pyrazin-3-yl)indolin-2-one]: the results for the IC50 in assay [1] and in assay [2] were < 1000 nM and < 500 nM, respectively.

As for `NC[C@]1(c2ccccc2F)[C@@H]2CCN(c3cnc4c(-c5ccc6[nH]c(=O)ccc6c5)n[nH]c4n3)C[C@@H]21` [Example 234, 6-(6-((1S,6R,7R)-7-(aminomethyl)-7-(2-fluorophenyl)-3-azabicyclo[4.1.0]heptan-3-yl)-1H-pyrazolo[3,4-b]pyrazin-3-yl)quinolin-2(1H)-one], the half-inhibitory concentration (IC50) is < 1000 nM in assay [1] and < 500 nM in assay [2].

For the compound `NC[C@]1(c2ccccc2F)[C@@H]2CCN(c3cnc4c(-c5cc6ccccc6c(=O)[nH]5)n[nH]c4n3)C[C@@H]21` [Example 235, 3-(6-((1S,6R,7R)-7-(aminomethyl)-7-(2-fluorophenyl)-3-azabicyclo[4.1.0]heptan-3-yl)-1H-pyrazolo[3,4-b]pyrazin-3-yl)isoquinolin-1(2H)-one], the IC50 in assay [1] is > 5000 nM; in assay [2], < 500 nM.

Regarding `NC[C@]1(c2ccccc2F)[C@@H]2CCN(c3cnc4c(-c5ccc(F)c6[nH]c(=O)ccc56)n[nH]c4n3)C[C@@H]21` [Example 236, 5-(6-((1S,6R,7R)-7-(aminomethyl)-7-(2-fluorophenyl)-3-azabicyclo[4.1.0]heptan-3-yl)-1H-pyrazolo[3,4-b]pyrazin-3-yl)-8-fluoroquinolin-2(1H)-one], the IC50 in assay [1] is < 1000 nM; in assay [2] it was < 500 nM.

Take `NC[C@]1(c2ccccc2F)[C@@H]2CCN(c3cnc4c(-c5ccc6ccc(=O)[nH]c6c5Cl)n[nH]c4n3)C[C@@H]21` [Example 237, 7-(6-((1S,6R,7R)-7-(aminomethyl)-7-(2-fluorophenyl)-3-azabicyclo[4.1.0]heptan-3-yl)-1H-pyrazolo[3,4-b]pyrazin-3-yl)-8-chloroquinolin-2(1H)-one]: the IC50 in assay [1] is < 1000 nM; in assay [2], < 500 nM.

Regarding `NC[C@]1(c2ccccc2F)[C@@H]2CCN(c3cnc4c(-c5ccc6c(c5)CCC(=O)N6)n[nH]c4n3)C[C@@H]21` [Example 238, 6-(6-((1S,6R,7R)-7-(aminomethyl)-7-(2-fluorophenyl)-3-azabicyclo[4.1.0]heptan-3-yl)-1H-pyrazolo[3,4-b]pyrazin-3-yl)-3,4-dihydroquinolin-2(1H)-one], the half-maximal inhibitory concentration (IC50) in assay [1] is < 1000 nM; in assay [2], < 500 nM.

In the case of `NC[C@]1(c2ccccc2F)[C@@H]2CCN(c3cnc4c(-c5ccc6[nH]c(=O)[nH]c6c5)n[nH]c4n3)C[C@@H]21` [Example 239, 5-(6-((1S,6R,7R)-7-(aminomethyl)-7-(2-fluorophenyl)-3-azabicyclo[4.1.0]heptan-3-yl)-1H-pyrazolo[3,4-b]pyrazin-3-yl)-1,3-dihydro-2H-benzo[d]imidazol-2-one], the IC50 in assay [1] is < 1000 nM; in assay [2], < 500 nM.

On to `NC[C@]1(c2ccccc2F)[C@@H]2CCN(c3cnc4c(-c5ccc6c(=O)[nH]ccc6c5)n[nH]c4n3)C[C@@H]21` [Example 240, 6-(6-((1S,6R,7R)-7-(aminomethyl)-7-(2-fluorophenyl)-3-azabicyclo[4.1.0]heptan-3-yl)-1H-pyrazolo[3,4-b]pyrazin-3-yl)isoquinolin-1(2H)-one], for which the IC50 was < 1000 nM in assay [1] and < 500 nM in assay [2].
